From US20170121678A1, “METHODS AND COMPOSITIONS TO STABILIZE DIFFERENT STEM CELL STATES” (UNIVERSITY OF WASHINGTON - CENTER COMMERCIALIZATION, priority 2014, published 2017)
Entries after “also recorded” stand apart in the source; their conditions may differ.

Assays:
Assay type in all cases: cell-based, human
[1] = tested on: histone methylation marks (H3K27me3, H3K9me3, H3K4me3, H3K9/K14Ac) in hESCs; experiment: Western blot analysis of histone marks; details: 1MNA 0.5 mM, 72 hr, primed hESCs (Elf1 AF), low L-methionine media
Protocol: Cellular extracts were prepared using a lysis buffer containing 20 mM Tris HCl (pH 7.5), 150 mM NaCl, 15% glycerol, 1% Triton, 25 mM (3-glycerolphosphate, 50 mM NaF, 10 mM sodium pyrophosphate, orthovanadate, PMSF), protease inhibitor cocktail (Roche) and 2% SDS. 25 U of BENZONASE® nuclease (EMD Chemicals) and 20 mM of DTT were added to the lysis buffer right before use. Protein concentrations were then determined by the method of Bradford. Fifteen micrograms of protein extracts were loaded, separated by 4-20% SDS-PAGE, and transferred to polyvinylidene difluoride membranes (Hybond-N+, Amersham Pharmacia Biotech). Membranes were blocked with 5% nonfat dry milk for 60 min at room temperature, and incubated overnight at 4° C. with primary antibody. […]
Naïve hESCs (Elf1 2iLIF) grown on MATRIGEL® were treated with 100 μM of STAT3 inhibitor (Selleckchem) for 6 hr or 24 hr and analyzed for methylation marks by Western blot and ChIP Seq. […]
(§1) Naïve Elf1 2iLIF cells were transfected in MATRIGEL® coated plates in MEF-CM supplemented with ROCK inhibitors (Torcis) using LIPOFECTAMINE™ RNAiMAX™ (Life Technologies). siRNA targeting NNMT (Hs-NNMT-8) was purchased from Qiagen as FLEXITUBE® siRNA premix, and siRNA targeting luciferase was used as control. siRNAs against NNMT and luciferase were used at 50 nM final concentration. […] Bright field and fluorescence images were taken after 3 days. […]

[2] = tested on: Wnt signaling (BAR reporter) in Elf1 cells; experiment: BAR Wnt reporter activity in Elf1 reporter cells; details: for BAR reporter activity: naïve Elf1 cells, 72 h, IWP2 2 μM, XAV939 5 μM, siRNA 10 nM
Protocol: Elf1 cells grown in naïve media (2iL or 2iLIF) or primed media (AF) were infected with BAR reporter lentivirus and seeded onto MATRIGEL®-coated plates in MEF-CM with 10 μM Y-27632, and 1 μM Thiazovivin (ROCK inhibitors, Tocris). Transduced Elf cells were cultured for a week on MATRIGEL®, then passaged onto MEF plates for further selection and expansion. Elf1 naïve reporter cells were harvested as single cells via TRYPLE™ Express and FACS sorted for the population with both Venus and DsRed (Discosoma sp. Red fluorescent protein) positive signals. DsRed positive colonies of Elf1 primed reporter cells were manually dissected, transferred onto MEF plates, and the same positive selection was repeated one more round or two depending on the selection efficiency. Negative colonies were manually removed as a negative selection. Once the DsRed positive lines were isolated and stable lines established, the primed Elf1 reporter cells were passaged with dispase.
(§2) Wnt secretion and signaling were inhibited in naïve hESCs (Elf1, WIN1) by treatment with IWP2 (2 μM, Torcis) or XAV939 (5 μM, Sigma). Wnt pathway was activated in primed Elf1 AF reporter cells using a GSK3 inhibitor, CHIR99021 (72 hr, 10 μM, AxonMedChem). Both IWP2 and CHIR99021 were reconstituted in DMSO.
L and L-Wnt3A cells (ATCC) were cultured in 15 cm plates in 10% FBS/DMEM media until 90% confluent. Medium was collected every 48 hr for three batches. Biological activity of secreted Wnt3A in the individual batches of the conditional medium was confirmed in 293T-BAR reporter cells, then batches were pooled and filtered. Primed (Elf1 AF) reporter cells were grown on MATRIGEL® with 50% LCM or 50% Wnt3A-CM for 3 days prior taking bright field and fluorescent pictures.
Naïve Elf1 2iLIF cells were transfected in MATRIGEL® coated plates in MEF-CM supplemented with ROCK inhibitors (Torcis) using LIPOFECTAMINE™ RNAiMAX™ (Life Technologies). siRNA targeting NNMT (Hs-NNMT-8) was purchased from Qiagen as FLEXITUBE® siRNA premix, and siRNA targeting luciferase was used as control. siRNAs against NNMT and luciferase were used at 50 nM final concentration. Proteins and RNAs were extracted 72 hr after transfection. siRNA targeting beta-catenin (Invitrogen, CTNNBI, SILENCER® Select ID s437) and SILENCER® Select Negative Control 1 (Invitrogen) were transfected in naïve Elf1 2iLIF cells at 10 nM final concentration following a reverse transfection protocol. Bright field and fluorescence images were taken after 3 days. The efficacy of NNMT and beta-catenin siRNAs was confirmed by qPCR analysis.

naïve hESCs (WIN1, Elf1) = experiment: Seahorse mitostress protocol, OCR changes in response to FCCP; details: for OCR changes in response to FCCP: naïve hESCs (WIN1)
Protocol: Naïve and primed ESCs were seeded in their specific growth media onto 96-well Seahorse plates (Seahorse Bioscience) pre-coated with MATRIGEL® at 25×10^4 or 40×10^4 cells/well. Culture media were exchanged for base media (unbuffered DMEM (Sigma D5030) supplemented with sodium pyruvate (Gibco, 1 mM) and with 25 mM glucose (for mito stress assay), 25 mM glucose and 50 μM carnitine (for palmitate assay), or 2 mM glutamine (for glucose stress assay)) 1 hr prior to the assay and for the duration of the measurement. Substrates and selective inhibitors were added during the measurements to achieve final concentrations of glucose (2.5 mM), […] (FCCP, 300 nM-500 nM), oligomycin ([…]), antimycin (2.5 μM), rotenone (2.5 μM), palmitate (50 μM in BSA), BSA (bovine serum albumin) and ETO (50 μM).
The mitochondrial stress protocol starts with the measurement of baseline oxygen consumption rate (OCR) and extracellular acidification rate (ECAR) followed by measurement of OCR and ECAR changes in response to addition of oligomycin, FCCP and finally antimycin and rotenone.
Then palmitate assay starts with the measurement of baseline OCR followed by measurement of OCR changes in response to injection of palmitate or BSA (in negative controls) and ETO. The OCR and ECAR values were further normalized to the number of cells present in each well, quantified by Hoechst staining (H033342; Sigma-Aldrich) as measured using fluorescence at 355 nm excitation and 460 nm emission (ENVISION® 2104 Multilabel reader, Perkin Elmer). Changes in OCR and ECAR in response to substrates and inhibitors addition were defined as the maximal change after the chemical addition compared to the last OCR value before the addition.
as §2
WIN1 and Elf1 cells were seeded in Seahorse plates in naïve (WIN1, Elf1) or primed (WIN1 AF) conditions with or without Kynurenine (100 μM, Sigma) and mitostress protocol was performed 2 days later.
WIN1 cells were seeded in Seahorse plates 2 days prior change of media with media without L-methionine (Sigma 0422 supplemented with 0.584 gm/L L-glutamine) and addition of SAM (500 μM). Five hours later Seahorse mitostress protocol was performed.

[3] = tested on: NNMT, miR-372, miR-10a expression in naïve hESCs (Elf1); experiment: qPCR analysis of NNMT and microRNA expression; details: IWP2 2 μM, 72 hr
Protocol: Total RNA was extracted using TRIZOL® and subsequently analyzed by SYBR® green qPCR with the 7300 real time PCR system (Applied Biosystems) as well as TAQMAN® qPCR (Applied Biosystems).
qPCR of miRNAs was conducted using AQMAN®miRNA assays (Applied Biosystems). Raw Ct (threshold cycle) values for miRNAs were normalized to RNU66 (endogenous snoRNA, internal control). Linear expression values for all qPCR experiments were calculated using the 2 (−ΔCt) method. P-values were calculated using a student's t-test (*p<0.05, **p<0.01, ***p<0.001).
as §2, §1

[4] = primed hESCs (Elf1 AF), 3 days, CHIR99021 10 μM, 50% Wnt3A-CM

`C[n+]1cccc(C(N)=O)c1` [1MNA, 1-methylnicotinamide] was tested, and the H3K27me3 mark [1] was “reduces” and the H3K27me3 mark ([1]; listed as 1 MNA) was “decreased”.

With `Cc1c[nH]c(-c2cnc(NCCNc3ccc(C#N)cn3)nc2-c2ccc(Cl)cc2Cl)n1` [CHIR99021] the BAR reporter [2, 4] was “re-activation” and the differentiation [2, 4] was “induces differentiation”.

`Cc1ccc2nc(NC(=O)CSc3nc4c(c(=O)n3-c3ccccc3)SCC4)sc2c1` [IWP2] was tested, and the BAR reporter activity [2] was “represses; also recorded: inhibit”, the “OCR changes after FCCP” value (naïve hESCs (WIN1, Elf1); IWP2 2 μM, 48 hr, naïve hESCs (Elf1, WIN1) and transitioning to primed (WIN1 AF)) was “decreases” and the “NNMT expression (qPCR)” value [3] was “downregulates”. The “miR-372 expression (qPCR)” value [3] was “downregulates”.

In the case of `C[S+](CC[C@H](N)C(=O)[O-])C[C@H]1O[C@@H](n2cnc3c(N)ncnc32)[C@H](O)[C@@H]1O` (stereo partly shown) [SAM, S-adenosyl methionine], the “OCR changes in response to FCCP” value (naïve hESCs (WIN1, Elf1); SAM 500 μM, 5 hr, media without methionine) is reported as “reduces” and the “metabolic profile in naïve hESCs” value (naïve hESCs (WIN1, Elf1); high levels of SAM (FIG. 4K-4L)) is reported as “induce a primed-like metabolic profile”.

In the case of `Oc1nc(-c2ccc(C(F)(F)F)cc2)nc2c1CSCC2` [XAV939], the BAR reporter activity [2] is reported as “dramatically downregulated; also recorded: inhibit”.

With `Nc1ccccc1C(=O)CC(N)C(=O)O` (stereo not shown) [kynurenine] the “OCR changes in response to FCCP” value (naïve hESCs (WIN1, Elf1); kynurenine 100 μM, 2 days) was “reduced” and the “naïve to primed hESC metabolic switch” value (naïve hESCs (WIN1, Elf1); kynurenine added to the media (FIG. 4E)) was “accelerated”.
